Test results as given in patent US6254853A, “Water soluble pro-drugs of propofol” (Vyrex Corporation, priority 1998, dated 2001).
Entries after “also recorded” stand apart in the source; their conditions may differ.

Legend:
[1] = tested on: low density lipoprotein (LDL); experiment: Effect of propofol esters on copper-promoted oxidation of LDL (conjugated dienes); format: biochemical, human; conditions: 5 μM; 100 μg/ml LDL, 5 μM copper sulfate
Source text: (§1) The following experiment is based on the use of low density lipoprotein (LDL) as an oxidizable substrate. LDL is one of the plasma lipoproteins whose oxidation is thought to contribute to the pathogenesis of atherosclerosis. The copper-promoted, the hydrogen peroxide-/horseradish peroxidase-promoted and the myeloperoxidase-promoted oxidation of LDL are models for the free radical-induced oxidation of LDL that occurs in vivo.
(§2) LDL was isolated from heparinized plasma of normal human donors by ultracentrifugation. Most of the experiments described in this study were performed immediately after isolation. Examples and further details of the experimental procedures may be found in N. Santanam et al. J. Clin Invest. 95(6):2594 (1995) and FEBS Leters, 414:549-551 (1997).
(§3) The formation of conjugated dienes was measured in a spectrophotometer (model DB-3500; SLM-AMINCO, Urbana, Ill.) equipped with a 12 position sample changer. Samples and references were measured continuously for periods of up to several hours. Typically, 100 μg/ml of LDL was incubated in PBS with 1 U horseradish peroxidase (type X, 260 U/mg) in the presence of 50 μM H2 O2. For copper-mediated oxidation, 100 μg/ml LDL was incubated with 5 μM copper sulfate solution.

[2] = tested on: low density lipoprotein (LDL); experiment: Effect of propofol esters on hydrogen peroxide/horseradish peroxidase-promoted oxidation of LDL (conjugated dienes); format: biochemical, human; conditions: 5 μM; 100 μg/ml LDL, 1 U horseradish peroxidase, 50 μM H2O2
Source text: as §1, §2, §3

[3] = tested on: colorectal cancer tumors; conditions: mice; co-administered with 5-fluorouracil or doxorubicin; Chinery et al. 1997; cited from earlier work
[4] = tested on: spinal cord; conditions: literature; cited from earlier work
[5] = literature; cited from earlier work
[6] = tested on: lipid peroxidation; conditions: Misacchia et al. 1991; cited from earlier work
[7] = in words; background knowledge; cited from earlier work
[8] = Water solubility; conditions: in words
[9] = In vitro hydrolysis of propofol esters to propofol in human saliva; format: in vitro ADME; conditions: room temperature, approximate
Protocol: (§4) In vitro hydrolysis of propofol esters in various media
(§5) General procedure: Propofol ester was dissolved in the test medium at room temperature, and samples were removed periodically for analysis. The samples were extracted with hexane, the extracts were evaporated to dryness, and the residues were taken up in methanol. Analysis was by HPLC using methanol solvent through an ODS column and UV detection at 260 nm.
(§6) The approximate half-life for the hydrolysis of propofol hemisuccinate to propofol in various media were as follows: […]

[10] = In vitro hydrolysis of propofol esters to propofol in human whole blood; format: in vitro ADME; conditions: room temperature, approximate
Protocol: as §4, §5, §6

[11] = tested on: Human low density lipoprotein (huLDL); experiment: Effect of propofol esters on myeloperoxidase-mediated oxidation of LDL (conjugated dienes); format: biochemical; conditions: concentration not given
Source text: as §1, §2
Human low density lipoprotein (huLDL) in the presence of myeloperoxidase undergoes oxidative modification. The oxidative damage may be measured by spectrophotometric detection of the resulting conjugated dienes (N. Santanam & S. Parthasarathy, J. Clin. Invest, 95(6):2594 (1995)).

[12] = In vitro hydrolysis of propofol esters to propofol in albumin; format: in vitro ADME; conditions: room temperature, approximate
Protocol: as §4, §5, §6

[13] = In vitro hydrolysis of propofol esters to propofol in rat whole blood; format: in vitro ADME; conditions: room temperature, approximate
Protocol: as §4, §5, §6

[14] = In vitro hydrolysis of propofol esters to propofol in human plasma; format: in vitro ADME; conditions: room temperature, approximate
Protocol: as §4, §5, §6

[15] = In vivo hydrolysis of propofol hemisuccinate after gavage (blood levels of propofol; observation of the animals); design: species or system male Sprague-Dawley rats; conditions: rat, two days following dosing
Protocol: At a dosage of 400 mg of propofol hemisuccinate per kg body weight, the blood level of propofol at 4 hrs was about 1 μg/ml.

[16] = In vitro hydrolysis of propofol esters to propofol in water (PBS buffer pH 7.4); format: in vitro ADME; conditions: room temperature, approximate
Protocol: as §4, §5, §6

SMILES: CC(C)c1cccc(C(C)C)c1OP(=O)(O)Oc1c(C(C)C)cccc1C(C)C [di(propofol) phosphoric acid ester]
- effect on copper-promoted oxidation of LDL [1]: not significantly affected
- effect on oxidation of LDL in the presence of horseradish peroxidase/hydrogen peroxide [2]: not significantly affected

SMILES: S=C(S)N1CCCC1 [pyrrolidine dithiocarbamate (PDTC), pyrrolidine dithiocarbamate]
- growth of colorectal cancer tumors [3]: inhibited the growth

SMILES: Cc1c(C)c2c(c(C)c1O)CCC(C)(CCCC(C)CCCC(C)CCCC(C)C)O2 (stereo not drawn) [Alpha-tocopherol]
- growth of colorectal cancer tumors [3]: inhibited the growth
- effect on chronic neurological recovery [4]: enhance chronic neurological recovery
- effect on post-traumatic spinal cord ischemia [4]: decrease post-traumatic spinal cord ischemia
- uptake into the central nervous system [5]: very slowly

SMILES: CC(C)c1cccc(C(C)C)c1O [propofol, 2,6-diisopropylphenol]
- inhibition of lipid peroxidation [6]: inhibit lipid peroxidation
- effect on copper-promoted oxidation of LDL [1]: almost totally inhibited
- effect on oxidation of LDL in the presence of horseradish peroxidase/hydrogen peroxide [2]: almost totally inhibited
- water solubility of propofol [7]: almost completely insoluble in water; also recorded: very low water solubility

SMILES: CC(C)c1cccc(C(C)C)c1OP(=O)(O)O [mono(propofol) phosphate]
- solubility in water [8]: most soluble
- effect on copper-promoted oxidation of LDL [1]: not significantly affected
- effect on oxidation of LDL in the presence of horseradish peroxidase/hydrogen peroxide [2]: not significantly affected
- Half-Life to Hydrolysis [9]: about four

SMILES: CC(C)c1cccc(C(C)C)c1OC(=O)CCC(=O)O [propofol hemisuccinate, 2,6-diisopropylphenyl hydrogen succinate]
- half-life [10]: ~48 h
- solubility in water [8]: most soluble
- effect on oxidation of LDL in the presence of myeloperoxidase [11]: partly inhibited; also recorded: significantly inhibited
- half-life [12]: ~144 h
- effect on copper-promoted oxidation of LDL [1]: not significantly affected
- half-life [13]: ~2 h
- effect on oxidation of LDL in the presence of horseradish peroxidase/hydrogen peroxide [2]: slightly inhibited
- half-life [14]: ~72 h
- condition of the animals through the two day observation period [15]: remained healthy and active
- half-life [9]: ~96 h
- half-life [16]: ~336 h
